What was measured:
[1] = thermal decomposition studies; assay type: physicochemical; details: based on thermal decomposition studies; monohydrate form II vs anhydrous form II
[2] = relative thermodynamic stability of crystalline forms; assay type: physicochemical; details: comparison of form II with form I of the same hydration state
Description: (§1) (The anhydrate of form I reverts to the monohydrate at 25° C./70% RH, while the anhydrate of form II reverts to the monohydrate at 25° C./90% RH).

[3] = reversion of anhydrate to monohydrate under humidity; assay type: physicochemical; details: 25° C.
Description: as §1

[4] = biological target: GABAA receptors comprising α4 and δ subunits (Homo sapiens, UniProt O14764+P28472+P48169); details: Brown et al, British J. Pharmacol., 136, 965-74 (2002); cited from earlier work
Sequence of GABAA receptors comprising α4 and δ subunits (P48169 36-554): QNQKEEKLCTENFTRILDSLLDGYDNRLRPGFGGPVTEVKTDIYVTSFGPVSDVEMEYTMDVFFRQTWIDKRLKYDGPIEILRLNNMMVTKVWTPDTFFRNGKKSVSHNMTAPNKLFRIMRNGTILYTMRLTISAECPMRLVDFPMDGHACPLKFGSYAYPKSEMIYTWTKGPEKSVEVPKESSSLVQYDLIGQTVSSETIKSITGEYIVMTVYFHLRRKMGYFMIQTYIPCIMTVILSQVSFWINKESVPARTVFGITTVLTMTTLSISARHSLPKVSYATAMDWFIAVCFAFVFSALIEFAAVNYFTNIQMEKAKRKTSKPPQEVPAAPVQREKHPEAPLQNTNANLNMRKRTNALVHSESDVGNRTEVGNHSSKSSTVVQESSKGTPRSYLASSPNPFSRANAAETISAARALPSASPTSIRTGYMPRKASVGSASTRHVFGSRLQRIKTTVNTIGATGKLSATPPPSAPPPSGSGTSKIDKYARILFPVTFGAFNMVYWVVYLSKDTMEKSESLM
Sequence of GABAA receptors comprising α4 and δ subunits (O14764 25-452): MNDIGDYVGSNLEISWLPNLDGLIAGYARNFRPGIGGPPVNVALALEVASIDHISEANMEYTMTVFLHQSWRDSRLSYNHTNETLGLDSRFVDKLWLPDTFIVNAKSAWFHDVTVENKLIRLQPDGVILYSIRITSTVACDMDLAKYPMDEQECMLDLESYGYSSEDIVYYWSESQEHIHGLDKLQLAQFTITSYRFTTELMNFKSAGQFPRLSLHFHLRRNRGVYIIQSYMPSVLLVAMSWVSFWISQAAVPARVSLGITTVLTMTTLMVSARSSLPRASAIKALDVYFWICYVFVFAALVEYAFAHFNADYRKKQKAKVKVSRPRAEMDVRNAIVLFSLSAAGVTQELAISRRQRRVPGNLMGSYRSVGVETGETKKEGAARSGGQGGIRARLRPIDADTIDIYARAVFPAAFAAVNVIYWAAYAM
Sequence of GABAA receptors comprising α4 and δ subunits (P28472 26-473): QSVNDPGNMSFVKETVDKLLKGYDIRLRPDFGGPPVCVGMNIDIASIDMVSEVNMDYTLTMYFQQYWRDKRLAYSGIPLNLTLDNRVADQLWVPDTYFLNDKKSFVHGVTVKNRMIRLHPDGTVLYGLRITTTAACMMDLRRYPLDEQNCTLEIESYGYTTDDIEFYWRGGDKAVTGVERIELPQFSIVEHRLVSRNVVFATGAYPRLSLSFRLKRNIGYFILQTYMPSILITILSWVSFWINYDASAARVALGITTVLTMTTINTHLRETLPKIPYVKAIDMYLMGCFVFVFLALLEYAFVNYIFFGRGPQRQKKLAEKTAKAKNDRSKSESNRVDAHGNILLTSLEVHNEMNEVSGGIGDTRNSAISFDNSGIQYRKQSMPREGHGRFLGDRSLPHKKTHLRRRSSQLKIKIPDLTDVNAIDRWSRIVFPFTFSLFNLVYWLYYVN

## Oc1noc2c1CCNC2 [Gaboxadol monohydrate of form II, 4,5,6,7-tetrahydroisoxazolo[5,4-c]pyridin-3-ol]
[1]
  thermal profile: safer thermal profile than the anhydrous form II
[2]
  thermodynamic stability relative to the other polymorph: thermodynamically more stable than the monohydrate of form I

## Oc1noc2c1CCNC2 [anhydrate of form I, 4,5,6,7-tetrahydroisoxazolo[5,4-c]pyridin-3-ol]
[3]
  relative humidity at which the anhydrate reverts to the monohydrate: 70 % RH

## Oc1noc2c1CCNC2 [gaboxadol, 4,5,6,7-tetrahydroisoxazolo[5,4-c]pyridin-3-ol]
[4]
  agonist potency: particularly potent agonist

## Oc1noc2c1CCNC2 [anhydrate of form II, 4,5,6,7-tetrahydroisoxazolo[5,4-c]pyridin-3-ol]
[3]
  relative humidity at which the anhydrate reverts to the monohydrate: 90 % RH
[2]; listed as gaboxadol anhydrate of form II
  thermodynamic stability relative to the other polymorph: more stable than the anhydrate of form I
